Results taken from publication PMC5823845 (Bioorganic & Medicinal Chemistry, 2018).
Read-outs that look alike come from different tables or passages of the source.

Assays:
[1] = biological target: T1, mouse RAR beta receptor (Mus musculus, UniProt P22605); conditions: ratio of relative EC50s RARβ/RARα
T1 sequence (P22605 210-444 limits assumed): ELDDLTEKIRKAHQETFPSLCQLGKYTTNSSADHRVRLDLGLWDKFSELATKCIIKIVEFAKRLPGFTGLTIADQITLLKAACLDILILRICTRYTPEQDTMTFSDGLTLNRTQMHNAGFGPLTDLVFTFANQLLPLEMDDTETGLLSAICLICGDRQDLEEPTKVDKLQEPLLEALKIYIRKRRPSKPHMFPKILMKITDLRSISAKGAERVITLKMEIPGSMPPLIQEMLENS

[2] = biological target: T2, mouse RAR gamma receptor (Mus musculus, UniProt P18911)
T2 sequence (P18911 185-419 limits assumed): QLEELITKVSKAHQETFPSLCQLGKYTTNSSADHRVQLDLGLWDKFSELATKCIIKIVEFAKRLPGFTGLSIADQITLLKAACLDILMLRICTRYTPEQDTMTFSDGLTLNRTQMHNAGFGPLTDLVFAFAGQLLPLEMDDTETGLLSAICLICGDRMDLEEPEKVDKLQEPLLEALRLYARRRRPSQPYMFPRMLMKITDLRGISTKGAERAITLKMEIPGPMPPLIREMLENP

[3] = Intrinsic clearance in liver microsomes; assay type: in vitro ADME; conditions: 37 °C, NADPH, 45 min, mean of 5
Experimental: The reaction is terminated by the addition of methanol. Following centrifugation, the supernatant is analyzed on the LC-MS/MS. […] The data is the mean on 5 separate experiments.
The ln peak area ratio (compound peak area/internal standard peak area) is plotted against time and the gradient of the line determined.
(see Supplementary data file for details).

[4] = PK studies in rats; assay type: in vivo, Sprague-Dawley rats; conditions: for rat pK AUC po: 10 mg/kg po, 8% Ethanol/92% PEG-400, n = 4; for rat pK Cl: iv 0.5 mg/kg; for rat pK Cl / bioavailability: n = 4; for bioavailability: male, Sprague-Dawley, whole blood, rat, 10 mg/kg po vs 0.5 mg/kg iv, read-out: rat pK F%
Experimental: The Test Items were orally administered at a dose of 10 mg/kg and a dosing volume of 10 mL/kg. […] The Test Items were intravenously administered at a dose of 0.5 mg/kg and a dosing volume of 2 mL/kg. […] Whole blood concentrations of the Test Items were measured using LC-MS/MS and selected pharmacokinetic parameters calculated using Pharsight WinNonLin software. For furthers details see Supplementary data file.

[5] = Log D pH 7.4, octanol/buffer shake flask method
Experimental: Briefly, octanol (pre-saturated with buffer) is added to the test compound and sonicated. Buffer at pH 7.4 (presaturated with octanol) is then added to the octanol. […] The system is mixed to allow distribution of the compound between the two phases.
Log D = Log (Coct / Caq ). Where: Coct = Concentration in octanol sample (corrected for dilution) and Caq = Concentration in aqueous sample (corrected for dilution)

[6] = biological target: T3, mouse RAR alpha receptor (Mus musculus, UniProt P11416); conditions: relative to the amplitude of the normalizing ATRA output
T3 sequence (P11416 183-417 limits assumed): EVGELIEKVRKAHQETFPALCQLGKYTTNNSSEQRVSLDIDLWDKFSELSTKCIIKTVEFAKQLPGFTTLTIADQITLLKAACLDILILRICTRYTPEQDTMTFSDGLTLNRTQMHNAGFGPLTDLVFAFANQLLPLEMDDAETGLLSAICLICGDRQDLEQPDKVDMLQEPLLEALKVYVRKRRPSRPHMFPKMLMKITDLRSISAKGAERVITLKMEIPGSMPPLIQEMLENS

[7] = mouse, ratio of relative EC50s RARγ/RARα
[8] = liver microsomes, human microsomes
[9] = liver microsomes, mouse microsomes

Row | SMILES | β/α ratio [1] | γ/α ratio [2, 7] | microsomal CLint [3, 9] [µL/min/mg] | logD [5] | further results
1 | CC1(C)CCC(C)(C)c2c1cc(C(=O)Nc1cc(F)c(C(=O)O)c(F)c1)c(O)c2Cl [Compound 4, reference compound] | 141 |  |  |  | γ/α ratio [2]: 867
2 | CCCOc1c(Cl)cc(C(=O)Nc2ccc(C(=O)O)cc2)cc1Cl [Compound 12] | 9.5 | 82 |  |  | 
3 | CCCCOc1c(Cl)cc(C(=O)Nc2ccc(C(=O)O)cc2)cc1Cl [Compound 13] | 8.5 | 18 |  |  | 
4 | CC(C)Oc1c(Cl)cc(C(=O)Nc2ccc(C(=O)O)cc2)cc1Cl [Compound 14] | 205 | 119 |  |  | 
5 | O=C(O)c1ccc(NC(=O)c2cc(Cl)c(OC3CCCC3)c(Cl)c2)cc1 [Compound 15, 4-(3,5-Dichloro-4-(cyclopentyloxy)benzamido)benzoic acid] |  |  | 83 | 2.8 | microsomal CLint [3, 8]: 26 µL/min/mg; rat pK AUC po [4]: 1674 ng·min mL^−1; rat pK Cl [4]: 2 mL/kg/min; bioavailability [4]: 0.3%
6 | CC(C)(C)Oc1c(Cl)cc(C(=O)Nc2ccc(C(=O)O)cc2)cc1Cl [Compound 16, 4-(4-(tert-Butoxy)-3,5-dichlorobenzamido)benzoic acid] |  |  | 91 | 2.6 | microsomal CLint [3, 8]: 16 µL/min/mg
7 | CCOc1c(Cl)cc(C(=O)Nc2ccc(C(=O)O)c(F)c2)cc1Cl [Compound 17] | 80 | >80 |  |  | 
8 | CCOc1c(Cl)cc(C(=O)Nc2ccc(C(=O)O)c(C)c2)cc1Cl [Compound 18, 4-(3,5-Dichloro-4-ethoxybenzamido)-2-methylbenzoic acid] |  |  | 38 | 1.7 | microsomal CLint [3, 8]: 14 µL/min/mg; rat pK AUC po [4]: 74,396 ng·min mL^−1; rat pK Cl [4]: 1.6 mL/kg/min; bioavailability [4]: 12%
9 | CCOc1c(Cl)cc(C(=O)Nc2ccc(C(=O)O)c(O)c2)cc1Cl [Compound 19, 4-(3,5-Dichloro-4-ethoxybenzamido)-2-hydroxybenzoic acid] | 37 | 149 |  |  | 
10 | CCOc1c(Cl)cc(C(=O)Nc2ccc(C(=O)O)c(Cl)c2)cc1Cl [Compound 20] | 64 | >50 |  |  | 
11 | CCOc1c(Cl)cc(C(=O)Nc2ccc(C(=O)O)c(C(F)(F)F)c2)cc1Cl [Compound 21] | 1.5 | 11 |  |  | 
12 | CCOc1c(Cl)cc(NC(=O)c2ccc(C(=O)O)cc2)cc1Cl [Compound 26, 4-(3,5-Dichloro-4-ethoxyphenylcarbamoyl)benzoic acid] | 12 | >3600 |  |  | 
13 | CCOc1c(OC2CCCC2)cc(C(=O)Nc2ccc(C(=O)O)cc2)cc1OC1CCCC1 [Compound 32] | 145 | 19 |  |  | RARα agonist type (partial / full agonist) [6]: partial agonist activity
14 | CC(C)Oc1cc(C(=O)Nc2ccc(C(=O)O)cc2)cc(OC(C)C)c1OC(C)C [Compound 33] | 96 | 8 |  |  | RARα agonist type (partial / full agonist) [6]: partial agonist activity
15 | CCOc1cc(C(=O)Nc2ccc(C(=O)O)cc2)cc(OC(C)C)c1OCC [Compound 34] | 84 | 34 |  |  | RARα agonist type (partial / full agonist) [6]: full RARα agonist
16 | O=C(O)c1ccc(NC(=O)c2cc(Cl)c(OC3CCC3)c(OC3CCC3)c2)cc1 [Compound 40] | 22 | 447 |  |  | 
17 | CC(C)(C)Oc1cc(C(=O)Nc2ccc(C(=O)O)cc2)cc(Cl)c1OC(C)(C)C [Compound 41, 4-(3,4-Di-tert-butoxy-5-chlorobenzamido)benzoic acid] | 44 | 189 |  |  | 
18 | O=C(O)c1ccc(NC(=O)c2cc(Cl)c(OC3CCCC3)c(OC3CCCC3)c2)cc1 [Compound 42, 4-[3-Chloro-4,5-bis(cyclopentyloxy)benzamido]benzoic acid] | 32 | 336 |  |  | 
19 | CC(C)Oc1cc(C(=O)Nc2ccc(C(=O)O)c(F)c2)cc(Cl)c1OC(C)C [Compound 43] | 34 | 300 | 18.8 | 2 | microsomal CLint [3, 8]: 6.9 µL/min/mg
20 | Cc1cc(NC(=O)c2cc(Cl)c(OC(C)C)c(OC(C)C)c2)ccc1C(=O)O [Compound 44] | 45 | 2947 | 26.2 | 2.3 | microsomal CLint [3, 8]: 15 µL/min/mg; rat pK AUC po [4]: 77,670 ng·min mL^−1; rat pK Cl [4]: 5.4 mL/kg/min; bioavailability [4]: 66%
21 | Cc1cc(NC(=O)c2cc(Cl)c(OC(C)(C)C)c(OC(C)(C)C)c2)ccc1C(=O)O [Compound 45] |  | 128 |  | 2.9 | microsomal CLint ([3]; human microsomes): 28.7 µL/min/mg; microsomal CLint ([3]; mouse microsomes): 36.2 µL/min/mg
22 | CCOc1cc(C(=O)Nc2ccc(C(=O)O)cc2)cc(Cl)c1OC(C)C [Compound 52] | 3.1 | 570 |  |  | 
23 | COc1c(Cl)cc(C(=O)Nc2ccc(C(=O)O)c(F)c2)cc1OC(C)C [Compound 53] | 609 | 17,600 | 11 | 1 | microsomal CLint [3, 8]: 0.3 µL/min/mg; rat pK AUC po [4]: 10,871 ng·min mL^−1; rat pK Cl [4]: 15 mL/kg/min; bioavailability [4]: 15%
24 | CCOc1c(Cl)cc(C(=O)Nc2ccc(C(=O)O)c(F)c2)cc1OC(C)C [Compound 54] | 487 | 6169 | 17.9 | 1.4 | microsomal CLint [3, 8]: 3.3 µL/min/mg; rat pK AUC po [4]: 15,376 ng·min mL^−1; rat pK Cl [4]: 12 mL/kg/min; bioavailability [4]: 12%
25 | CCOc1cc(C(=O)Nc2ccc(C(=O)O)c(C)c2)cc(Cl)c1OC(C)C [Compound 57] | 286 | 1675 | 25.7 | 1.9 | microsomal CLint [3, 8]: 8.7 µL/min/mg
26 | CCOc1c(Cl)cc(C(=O)Nc2ccc(C(=O)O)c(C)c2)cc1OC [Compound 58] | 210 | >250 | 18.4 |  | 
27 | CCOc1c(Cl)cc(C(=O)Nc2ccc(C(=O)O)c(C)c2)cc1OCC1CC1 [Compound 59] | 58 | 38,461 | 42.3 |  | 
28 | O=C(O)c1ccc(NC(=O)c2cc(Cl)c(O)c(Cl)c2)cc1 [Compound 60] | 7 | 55 |  |  | 
29 | COc1c(Cl)cc(C(=O)Nc2ccc(C(=O)O)cc2)cc1Cl [Compound 61] | 318 | 195 |  |  | 
30 | CCOc1cc(C(=O)Nc2ccc(C(=O)O)cc2)cc(OCC)c1OCC [Compound 62] | 174 | 16 |  |  | 
